Series [1] in a line: AUC (0 to t) in Sprague-Dawley rat at 10 mg/kg, po measured after 24 hrs by LC/MS/MS analysis. Format: ADME, organism-based. Particulars: in vivo.
The nature of series [2]: Half-life in Sprague-Dawley rat at 10 mg/kg, po measured after 24 hrs by LC/MS/MS analysis. It is filed as ADME, organism-based. As to conditions: in vivo.
Series [3] can be described thus: Cmax in Sprague-Dawley rat at 2.5 mg/kg, iv measured after 24 hrs by LC/MS/MS analysis. It is filed as ADME, organism-based. Particulars: in vivo.
Series [4] in a line: Half-life in Sprague-Dawley rat at 2.5 mg/kg, iv measured after 24 hrs by LC/MS/MS analysis. As to conditions: in vivo. It is filed as ADME, organism-based.
Series [5] in a line: Cmax in Sprague-Dawley rat at 10 mg/kg, po measured after 24 hrs by LC/MS/MS analysis. It is filed as ADME, organism-based. As to conditions: in vivo.
Series [6] can be described thus: AUC (0 to t) in Sprague-Dawley rat at 2.5 mg/kg, iv measured after 24 hrs by LC/MS/MS analysis. It is filed as ADME, organism-based. Particulars: in vivo.
Series [7] deals with T1, Protein cereblon/Cyclin-dependent kinase 13 (Homo sapiens) (UniProt Q14004+Q96SW2). The series can be described thus: PROTAC activity at CRBN/CDK13 in human MDA-MB-231 cells assessed as induction of CDK13 degradation at 0.3 uM incubated for 15 hrs by immunoblotting analysis relative to control. It is filed as cell-based. For orientation: In western blotting, separated proteins are transferred to a membrane and probed.
Target sequence in this assay (Q96SW2 whole entry, looked up, chain 1 of 2): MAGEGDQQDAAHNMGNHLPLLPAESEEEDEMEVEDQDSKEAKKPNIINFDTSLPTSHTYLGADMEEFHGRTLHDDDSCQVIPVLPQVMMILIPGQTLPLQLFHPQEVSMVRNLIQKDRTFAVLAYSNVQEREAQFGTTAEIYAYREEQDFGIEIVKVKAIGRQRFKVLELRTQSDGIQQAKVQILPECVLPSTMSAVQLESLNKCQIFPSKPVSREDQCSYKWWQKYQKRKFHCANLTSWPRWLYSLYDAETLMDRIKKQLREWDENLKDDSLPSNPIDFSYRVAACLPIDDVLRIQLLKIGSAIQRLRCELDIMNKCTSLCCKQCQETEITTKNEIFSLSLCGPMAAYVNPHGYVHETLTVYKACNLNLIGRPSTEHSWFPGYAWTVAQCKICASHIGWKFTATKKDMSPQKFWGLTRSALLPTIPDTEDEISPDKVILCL
Target sequence in this assay (Q14004 whole entry, looked up, chain 2 of 2): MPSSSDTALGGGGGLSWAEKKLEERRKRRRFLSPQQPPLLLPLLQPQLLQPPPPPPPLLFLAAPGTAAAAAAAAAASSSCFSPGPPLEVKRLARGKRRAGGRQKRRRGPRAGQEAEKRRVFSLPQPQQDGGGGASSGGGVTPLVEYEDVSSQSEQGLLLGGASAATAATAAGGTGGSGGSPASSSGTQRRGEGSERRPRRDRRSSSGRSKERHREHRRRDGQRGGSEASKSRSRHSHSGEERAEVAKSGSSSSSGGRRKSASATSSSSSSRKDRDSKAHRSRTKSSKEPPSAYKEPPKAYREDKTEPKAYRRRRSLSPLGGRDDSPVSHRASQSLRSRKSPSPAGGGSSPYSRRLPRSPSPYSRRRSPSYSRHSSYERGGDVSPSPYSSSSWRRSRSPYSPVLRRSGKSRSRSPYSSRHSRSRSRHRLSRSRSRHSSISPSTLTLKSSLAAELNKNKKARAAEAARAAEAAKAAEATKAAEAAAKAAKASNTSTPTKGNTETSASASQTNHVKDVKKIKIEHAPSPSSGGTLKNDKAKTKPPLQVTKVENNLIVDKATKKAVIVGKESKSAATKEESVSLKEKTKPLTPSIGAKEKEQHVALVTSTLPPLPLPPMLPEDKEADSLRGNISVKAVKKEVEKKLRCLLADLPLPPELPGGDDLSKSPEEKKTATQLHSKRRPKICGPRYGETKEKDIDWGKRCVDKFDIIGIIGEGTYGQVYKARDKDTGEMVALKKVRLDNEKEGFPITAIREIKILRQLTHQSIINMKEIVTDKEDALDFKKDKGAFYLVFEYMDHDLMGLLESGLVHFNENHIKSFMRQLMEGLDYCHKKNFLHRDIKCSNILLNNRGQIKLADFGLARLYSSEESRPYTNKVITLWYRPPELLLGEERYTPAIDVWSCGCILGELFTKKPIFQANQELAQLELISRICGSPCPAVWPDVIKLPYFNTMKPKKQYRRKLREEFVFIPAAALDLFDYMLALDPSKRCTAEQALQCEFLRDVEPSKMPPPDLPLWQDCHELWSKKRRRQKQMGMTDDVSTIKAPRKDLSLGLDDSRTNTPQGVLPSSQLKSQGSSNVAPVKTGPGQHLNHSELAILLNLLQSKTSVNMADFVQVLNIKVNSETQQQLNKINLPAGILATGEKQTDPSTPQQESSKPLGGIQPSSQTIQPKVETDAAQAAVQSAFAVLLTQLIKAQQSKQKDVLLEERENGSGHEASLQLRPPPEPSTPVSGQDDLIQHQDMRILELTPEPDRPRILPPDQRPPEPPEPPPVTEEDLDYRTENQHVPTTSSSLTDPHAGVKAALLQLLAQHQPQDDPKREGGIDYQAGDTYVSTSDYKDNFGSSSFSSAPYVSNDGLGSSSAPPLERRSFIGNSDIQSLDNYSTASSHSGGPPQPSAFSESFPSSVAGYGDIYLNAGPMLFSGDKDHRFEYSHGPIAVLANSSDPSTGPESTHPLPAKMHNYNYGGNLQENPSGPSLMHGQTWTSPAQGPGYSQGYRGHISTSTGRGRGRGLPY

In series [8] the target is T2, Protein cereblon/Cyclin-dependent kinase 12 (Homo sapiens) (UniProt Q9NYV4+Q96SW2). The series can be described thus: PROTAC activity at CRBN/CDK12 in human MDA-MB-231 cells assessed as induction of CDK12 degradation at 0.3 uM incubated for 15 hrs by immunoblotting analysis relative to control. Format: cell-based.
Target sequence in this assay (Q96SW2 whole entry, looked up, chain 1 of 2): as the sequence (Q96SW2 whole entry, looked up, chain 1 of 2) above
Target sequence in this assay (Q9NYV4 whole entry, looked up, chain 2 of 2): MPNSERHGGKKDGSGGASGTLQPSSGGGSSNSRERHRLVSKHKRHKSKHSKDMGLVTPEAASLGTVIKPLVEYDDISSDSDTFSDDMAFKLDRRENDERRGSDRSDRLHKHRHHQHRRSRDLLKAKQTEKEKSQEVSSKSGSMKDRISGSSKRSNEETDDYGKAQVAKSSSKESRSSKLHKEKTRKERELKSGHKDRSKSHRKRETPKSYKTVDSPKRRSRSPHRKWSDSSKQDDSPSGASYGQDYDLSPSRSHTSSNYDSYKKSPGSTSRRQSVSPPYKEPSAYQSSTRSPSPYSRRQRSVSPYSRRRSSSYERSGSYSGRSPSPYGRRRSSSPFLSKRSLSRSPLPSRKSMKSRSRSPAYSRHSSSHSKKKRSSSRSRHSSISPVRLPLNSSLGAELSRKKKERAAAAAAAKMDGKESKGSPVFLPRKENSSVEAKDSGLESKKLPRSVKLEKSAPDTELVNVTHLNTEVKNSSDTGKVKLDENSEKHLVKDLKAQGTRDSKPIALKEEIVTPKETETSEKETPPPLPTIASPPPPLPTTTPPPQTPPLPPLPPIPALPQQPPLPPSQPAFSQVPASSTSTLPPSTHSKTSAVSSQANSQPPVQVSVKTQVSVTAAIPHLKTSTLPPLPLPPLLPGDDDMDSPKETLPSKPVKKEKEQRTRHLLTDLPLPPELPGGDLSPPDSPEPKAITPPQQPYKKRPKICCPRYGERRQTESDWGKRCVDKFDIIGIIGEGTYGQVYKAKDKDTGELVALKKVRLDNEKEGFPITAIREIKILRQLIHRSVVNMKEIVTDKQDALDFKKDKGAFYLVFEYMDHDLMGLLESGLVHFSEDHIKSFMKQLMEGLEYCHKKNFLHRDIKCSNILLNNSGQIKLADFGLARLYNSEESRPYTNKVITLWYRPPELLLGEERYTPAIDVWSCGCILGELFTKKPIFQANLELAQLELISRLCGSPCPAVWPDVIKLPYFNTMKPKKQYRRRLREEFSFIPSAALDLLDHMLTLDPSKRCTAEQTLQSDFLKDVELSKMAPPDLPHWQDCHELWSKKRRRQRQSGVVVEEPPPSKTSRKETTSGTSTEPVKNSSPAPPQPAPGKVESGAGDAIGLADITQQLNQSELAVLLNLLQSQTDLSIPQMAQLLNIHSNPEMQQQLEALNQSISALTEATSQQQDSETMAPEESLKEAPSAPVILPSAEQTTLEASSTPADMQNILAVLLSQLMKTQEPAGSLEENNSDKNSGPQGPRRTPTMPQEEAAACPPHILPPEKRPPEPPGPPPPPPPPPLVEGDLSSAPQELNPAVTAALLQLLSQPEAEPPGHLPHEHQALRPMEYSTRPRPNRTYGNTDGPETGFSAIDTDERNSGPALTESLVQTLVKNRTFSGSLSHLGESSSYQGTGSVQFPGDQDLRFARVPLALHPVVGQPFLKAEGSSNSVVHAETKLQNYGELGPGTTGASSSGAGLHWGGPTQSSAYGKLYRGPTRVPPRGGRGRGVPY
Series [9] relates to MDA-MB-436. The experiment in a line: Antiproliferative activity against human MDA-MB-436 cells assessed as inhibition of cell growth at 0.0001 to 100 uM incubated for 5 days by CCK8 assay. It is filed as functional, cell-based. As to conditions: dose 0.0001-100 µM, time 5.0 day.
The target in series [10] is T2, Protein cereblon/Cyclin-dependent kinase 12 (Homo sapiens). The experiment in a line: PROTAC activity at CRBN/CDK12 in human MDA-MB-231 cells assessed as induction of CDK12 degradation at 1 uM incubated for 10 hrs by immunoblotting analysis. Format: cell-based.
Target sequence in this assay (Q96SW2 whole entry, looked up): as the sequence (Q96SW2 whole entry, looked up, chain 1 of 2) above
Target sequence in this assay (Q9NYV4 whole entry, looked up): as the sequence (Q9NYV4 whole entry, looked up, chain 2 of 2) above
The subject of series [11] is HCC38. The series can be described thus: Antiproliferative activity against human HCC38 cells assessed as inhibition of cell growth at 0.0001 to 100 uM incubated for 5 days by CCK8 assay. It is filed as functional, cell-based. As to conditions: dose 0.0001-100 µM, time 5.0 day.
For series [12], the system named is HEK293. The experiment in a line: Antiproliferative activity against HEK293 cells assessed as inhibition of cell growth at 0.0001 to 100 uM incubated for 5 days by CCK8 assay. Particulars: human, hek293, 120 h, dose 0.0001-100 µM, time 5 day. Format: toxicity, cell-based. In general terms: Tetrazolium dyes change colour on reduction, which living cells bring about.

The subject of series [13] is MRC5. The experiment in a line: Antiproliferative activity against human MRC5 cells assessed as inhibition of cell growth at 0.0001 to 100 uM incubated for 5 days by CCK8 assay. It is filed as toxicity, cell-based. As to conditions: mrc5, 120 h, dose 0.0001-100 µM, time 5 day.
Series [14] has as its system MDA-MB-231. The experiment in a line: Antiproliferative activity against human MDA-MB-231 cells assessed as inhibition of cell growth at 0.0001 to 100 uM incubated for 5 days by CCK8 assay. Format: functional, cell-based. Particulars: dose 0.0001-100 µM, time 5.0 day.
Series [15] deals with T1, Protein cereblon/Cyclin-dependent kinase 13 (Homo sapiens). The series can be described thus: PROTAC activity at CRBN/CDK13 in human MDA-MB-231 cells assessed as induction of CDK13 degradation at 1 uM incubated for 10 hrs by immunoblotting analysis. Format: cell-based.
Target sequence in this assay (Q14004 whole entry, looked up): as the sequence (Q14004 whole entry, looked up, chain 2 of 2) above
Target sequence in this assay (Q96SW2 whole entry, looked up): as the sequence (Q96SW2 whole entry, looked up, chain 1 of 2) above
Series [16] has as its system MCF-10A. The series can be described thus: Antiproliferative activity against human MCF-10A cells assessed as inhibition of cell growth at 0.0001 to 100 uM incubated for 5 days by CCK8 assay. It is filed as toxicity, cell-based. Particulars: 120 h, dose 0.0001-100 µM, time 5 day.

Activity calls are given as the source filed them.

In general, AUC(0-t) refers to the area under the concentration-time curve up to a stated or last time point. A higher AUC(0-t) goes with more exposure. For orientation: half-life means the time needed for the level to fall by half in the phase considered. Higher therefore signals slow loss. A word on the Cmax: it is the highest concentration seen after dosing.

In the case of `N#Cc1ccc(N[C@H]2CC[C@H](N(C(=O)NCc3ccccc3)c3ccc(N4CCN(C5CCN(c6ccc7c(c6)C(=O)N(C6CCC(=O)NC6=O)C7=O)CC5)CC4)cc3)CC2)nc1` (stereo partly specified), the values for the AUC(0-t) at 24 h in series [1] and in [6] were 3110 ng·h/mL and 4720 ng·h/mL, respectively. The half-life in series [2] is 3.04 h; in [4] it was 2.38 h. Besides, the Cmax in [3] is 2590 ng/mL; in series [5], 308 ng/mL.

For the molecule “3-benzyl-1-((1r,4r)-4-((5-cyanopyridin-2-yl)amino)cyclohexyl)-1-(4-(4-(1-(2-(2,6-dioxopiperidin-3-yl)-1,3-dioxoisoindolin-5-yl)azetidine-3-carbonyl)piperazin-1-yl)phenyl)urea”, the Activity came to 38% in series [7] and 35% in series [8].

As to `CN1C(=O)CCC(N2C(=O)c3cc(F)c(N4CCC(N5CCN(c6ccc(N(C(=O)NCc7ccccc7)[C@H]7CC[C@H](Nc8ccc(C#N)cn8)CC7)cc6)CC5)CC4)cc3C2=O)C1=O` (stereo partly specified), the outcome in series [9], in series [10], in [11], in [14] and in series [15] was inactive. Further, the Activity entry in series [12], in series [13] and in [16] was “Non-Toxic” throughout.

These data come from ChEMBL document CHEMBL6071181, “Discovery of ZLC491 as a Potent, Selective, and Orally Bioavailable CDK12/13 PROTAC Degrader” (J Med Chem, 2024).
